# Test results published in patent publication US20160081336A1, “MEDIUM WITH A PLANT NON-METABOLIZABLE SUGAR FOR IMPROVING SEED GERMINATION” (WEYERHAEUSER NR COMPANY, priority 2014, published 2016).
# Assays:
# [1] = Study testing increased arginine in gametophyte medium; conditions: in vivo
# Source text: Aside from the signaling evidence from the literature, the effect of isomaltulose is not thought to be simply from additional osmoticant because higher osmolality medium would drive the water potential gradient further in the direction of the gametophyte, not toward the embryo.
# developing embryo = test: Earlier sucrose level study in manufactured seed (FIG. 2, 3); type: in vivo
# Source text: Higher water potential with relation to lower sucrose levels (solute concentration) was previously purported to increase flooding in gametophyte seed cavities. […] Because of the flooding problem, this study could have selected for those treatments that had the most rapid lid penetration, which would allow embryos to escape the flooded seed environment.
# embryos = test: Lower sucrose concentrations study (15, 25, 35 and 50 g/l; FIG. 4-6); type: in vivo
# Source text: Organ lengths were also a factor with relation to sucrose concentrations. It was hypothesized that lower sucrose concentrations would affect root lengths and indeed the lower sucrose treatments produced shorter root lengths as compared to the highest group 50 g/l sucrose (FIG. 4). […] After observing sufficient lid penetration, seed were transferred from boxes to sterile sand.
# [2] = tested on: alkaline and acid invertases; conditions: cut potato tubers; cited from earlier work
# [3] = tested on: embryos dissected from natural loblolly pine seed; test: Germination of loblolly pine embryos in manufactured seed, sucrose/isomaltulose gametophyte media (Example 2); type: in vivo; conditions: relative to 20 sucrose
# Source text: Normal (germination score): Fully extracted out of seed with no malformation (epicotyl optional for fully extracted). OR partial germinant with epicotyl out of cavity and all organs—No Malformations present. Root length of at least 3.0 mm.
# Partial Normal (germination score): Not fully emerged, partial germinant with no epicotyl and no malformations. Root length of at least 3.0 mm.
# Not normal (germination score): Malformed partial germinants, lacking organs, roots less than 3 mm, any upside down or twisted germinant, or germinated and died as evidenced by lid penetration but no germinant present.
# Manufactured seeds were prepared with KE 64 agar nutritive medium, as shown below in Table 1, with sucrose (50 g/L), agar (18 g/L to 26 g/L), nutrient-loaded charcoal (60 g/L) and Pluronic F68 (10 g/L).
# The germination rate may be measured and the normalcy of the germinants may also be assessed. A “normal germinant” or “normalcy” denotes the presence of all expected parts of a plant at time of evaluation. In the case of gymnosperms, normalcy is characterized by the radicle having a length greater than 3 mm and no visibly discernable malformations compared to the appearance of embryos germinated from natural seed. “Not normal” means tissue on at least one organ is swollen, and the root and cotyledons are dead. […]
smiles,measurement,setting,value
N=C(N)NCCC[C@H](N)C(=O)O [arginine],performance with increased arginine,[1],reduced performance at higher levels
OC[C@H]1O[C@@](CO)(O[C@H]2O[C@H](CO)[C@@H](O)[C@H](O)[C@H]2O)[C@@H](O)[C@@H]1O [sucrose],organ lengths,developing embryo; FIG. 2,increased with sucrose at 50 g/l and greater
same,normalcy,developing embryo; FIG. 3,decreased with increasing sucrose concentration
same,root length,embryos; FIG. 4,increased root length with relation to rising sucrose levels
same,normalcy,"embryos; after germination in sand, FIG. 6",normalcy increasing with higher sucrose concentrations
same,embryo activity,"embryos; day 5, FIG. 5",Lower concentrations of sucrose gave the highest yield of embryo activity
"O=C(CO)[C@@H](O)[C@H](O)[C@H](O)CO[C@H]1O[C@H](CO)[C@@H](O)[C@H](O)[C@H]1O [isomaltulose, 6-O-α-d-glucopyranosyl-D-fructose]",isomaltulose concentration at peak acid invertase activity,[2],20 mM
same,isomaltulose concentration at peak alkaline invertase activity,[2],50 mM
same,lateral roots,[3],significantly improved lateral root presence
